Data on seven molecules can be found in article PMC10453766, “Comparison of the Effects of DOTA and NOTA Chelators on ^64Cu-Cudotadipep and ^64Cu-Cunotadipep for Prostate Cancer” (Diagnostics, 2023).

Data set [1] concerns PC3-PIP (PSMA+) cells. The experiment in a line: Cell uptake in PC3-PIP cells. The format is cell-based, human. Particulars: as given in the abstract. How it is done:
PC3-PIP or PC3-flu cells (1 × 10^6) were mixed with 3.7 MBq (100 μCi) of ^64Cu-cudotadipep or ^64Cu-cunotadipep and incubated at 37 °C and 5% CO2 for 2 h. Following incubation, the cells were washed with PBS twice and collected via centrifugation (2000 rpm, 5 min). Radioactivity was measured using 2480 WIZARD2 gamma counter (Perkin Elmer, Waltham, MA, USA). Percent (%) uptake was calculated using the ratio between the radioactivity of the cells and treated radioactivity.

Data set [2] deals with T1, PSMA (Homo sapiens, UniProt Q04609).
T1 construct: host or cells: 22Rv1 human prostate cancer cells (intact cells)
The experiment in a line: Competitive binding assay against ^125I-MIP-1095 in 22Rv1 cells. The note with it: for Ki: 22Rv1 cells, converted from IC50 with the Cheng–Prusoff equation using Kd of MIP-1095; for IC50: cold forms, PSMA-expressing 22Rv1 cells, 1 h, 37 °C. How it is done:
The 22Rv1 cells (1 × 10^6 cells/well, 48-well plate) were washed with phosphate-buffered saline (PBS), and the culture medium was substituted with RPMI-1640 medium containing 1% bovine serum albumin. The cells were incubated for 1 h at 37 °C and 5% CO2 with unlabeled cudotadipep or cunotadipep (1.00 × 10^−4–1.00 × 10^−10 M) or 0.09–0.1 nM ^125I-(S)-2-(3-((S)-1-carboxy-5-(3-(4-iodophenyl)ureido)pentyl)ureido)pentanedioic acid (^125I-MIP-1095). The cells were washed twice in cold PBS and collected via centrifugation (2000 rpm, 5 min). Radioactivity was measured using 2480 WIZARD2 gamma counter (Perkin Elmer, Waltham, MA, USA). IC50 was calculated using Microsoft Excel and converted to Ki, using the Cheng–Prusoff equation [21].

In data set [3] the target is T1, PSMA. Briefly: Saturation binding assay of ^125I-MIP-1095 in 22Rv1 cells. Particulars: saturation binding test. As to the method:
The dissociation constant (Kd) of MIP-1095 was determined via a saturation binding assay. The saturation binding assay was performed as performed in a previous study. Briefly, the 22Rv1 cells (2 × 10^5) were aliquoted into wells in a 24-well plate and incubated with 0.7–17.5 nM (0.0037–0.1332 MBq) of ^125I-MIP-1095 at 37 °C for 1 h. To prevent nonspecific binding, 500 μM unlabeled MIP was added. Radioactivity was measured using 2480 WIZARD2 gamma counter (Perkin Elmer, Waltham, MA, USA). Statistical analysis was performed using Microsoft Excel.

The conditions of data set [4]: ^18F-labeled PSMA compounds; cited from earlier work.

Structures are written as SMILES.

T1 sequence (Q04609 whole entry): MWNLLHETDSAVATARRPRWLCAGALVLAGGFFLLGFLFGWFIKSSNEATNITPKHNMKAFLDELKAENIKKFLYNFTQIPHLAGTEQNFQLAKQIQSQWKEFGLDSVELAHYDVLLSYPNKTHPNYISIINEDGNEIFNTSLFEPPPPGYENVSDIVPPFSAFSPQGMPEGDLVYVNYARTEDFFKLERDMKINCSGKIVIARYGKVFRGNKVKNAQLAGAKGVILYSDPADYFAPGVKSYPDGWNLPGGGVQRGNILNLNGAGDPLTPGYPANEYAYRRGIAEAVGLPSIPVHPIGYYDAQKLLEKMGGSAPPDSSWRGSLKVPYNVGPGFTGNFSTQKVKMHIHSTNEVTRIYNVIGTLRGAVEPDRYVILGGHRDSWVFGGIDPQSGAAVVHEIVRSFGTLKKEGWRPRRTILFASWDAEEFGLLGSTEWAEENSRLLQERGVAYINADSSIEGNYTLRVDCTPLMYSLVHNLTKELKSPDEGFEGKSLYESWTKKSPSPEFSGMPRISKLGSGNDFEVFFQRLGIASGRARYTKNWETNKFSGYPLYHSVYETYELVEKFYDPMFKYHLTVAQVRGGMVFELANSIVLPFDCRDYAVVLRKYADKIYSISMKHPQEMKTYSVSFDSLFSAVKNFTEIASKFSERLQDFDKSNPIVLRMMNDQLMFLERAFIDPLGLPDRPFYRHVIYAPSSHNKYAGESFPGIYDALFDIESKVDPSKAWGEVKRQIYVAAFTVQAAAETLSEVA

As for `O=C([O-])CN1CCN(CC(=O)[O-])CCN(CC(=O)N[C@@H](CCCCNC(=O)CCCc2ccc(I)cc2)C(=O)NCCOCCOCC(=O)N(CCCC[C@H](NC(=O)N[C@@H](CCC(=O)O)C(=O)O)C(=O)O)CC(=O)O)CCN(CC(=O)[O-])CC1.[Cu+2]` [Cu-cudotadipep], in data set [1], the cellular uptake turned out to be 2.93 ± 0.06 %/1 × 10^6 cells. In data set [2], the Ki stood at 6.75 ± 0.42 nM and the IC50 was determined as 16.8 ± 1.05 nM. For `O=C([O-])CN1CCN(CC(=O)[O-])CCN(CC(=O)N[C@@H](CCCCNC(=O)CCCc2ccc(I)cc2)C(=O)NCCOCCOCC(=O)N(CCCC[C@H](NC(=O)N[C@@H](CCC(=O)O)C(=O)O)C(=O)O)CC(=O)O)CC1.[Cu+2]` [Cu-cunotadipep], in that order: 6.02 ± 0.05 %/1 × 10^6 cells, 2.17 ± 0.25 nM and 5.42 ± 0.64 nM.

In data set [3], `O=C(O)CC[C@H](NC(=O)N[C@@H](CCCCNC(=O)Nc1ccc(I)cc1)C(=O)O)C(=O)O` [MIP-1095, ^125I-(S)-2-(3-((S)-1-carboxy-5-(3-(4-iodophenyl)ureido)pentyl)ureido)pentanedioic acid] yielded a Bmax of 0.25 nM and a dissociation constant (Kd) of 0.13 nM. `O=C(O)CC[C@H](NP(=O)(O)OCCC[C@H](NC(=O)CC[C@H](NC(=O)CCCCCNC(=O)c1ccc([18F])cc1)C(=O)O)C(=O)O)C(=O)O` [^18F-CTT1057]: the effective dose in data set [4] was 2.28 × 10^−2 mSv/MBq. `O=C(O)CC[C@H](NC(=O)N[C@@H](CCCCNC(=O)c1ccc([18F])nc1)C(=O)O)C(=O)O` [^18F-DCFPyL]: the effective dose in data set [4] is on record as 1.65 × 10^−2 mSv/MBq. Regarding `O=C([O-])CN(CCN(CC(=O)[O-])Cc1cc(CCC(=O)NCCCCCC(=O)NCCCC[C@H](NC(=O)N[C@@H](CCC(=O)O)C(=O)O)C(=O)O)ccc1O)Cc1cc(CCC(=O)O)ccc1O.[18F-].[Al+3]` [^18F-PSMA-11], the effective dose in data set [4] was 1.28 × 10^−2 mSv/MBq. In the case of `O=C(O)CC[C@H](NC(=O)N[C@@H](CCCCNC(=O)[C@H](Cc1ccc2ccccc2c1)NC(=O)c1ccc(CNC(=O)[C@H](CCC(=O)O)NC(=O)[C@H](CCC(=O)O)NC(=O)c2ccc([18F])nc2)cc1)C(=O)O)C(=O)O` [^18F-PSMA-1007], in data set [4], the effective dose is 2.20 × 10^−2 mSv/MBq.
